Experimental data from ChEMBL document CHEMBL5346962, “Discovery of Sulanemadlin (ALRN-6924), the First Cell-Permeating, Stabilized α-Helical Peptide in Clinical Development” (J Med Chem, 2023).
The source made the active and inactive calls. No cut-off for these calls is given here.

Legend:
[1] = Plasma protein binding in dog at 2 to 50 uM; type: ADME, cell-free, Canis lupus familiaris; details: dose 2-50 µM, read-out: PPB (converted)
MC-38 = experiment: Antitumor activity against mouse MC38 cells allografted in C57BL/6 mouse assessed as reduction in tumor volume at 8 mg/kg administered on day 0 to 4 and co-administered 30 mins prior to topotecan on day 1 to 4 followed by topotecan administration on day 5 measured for 40 days; type: functional, organism-based; details: time 40.0 day
[2] = Induction of cell cycle arrest in human CD34+ cells assessed as accumulation at S phase at 1 uM incubated for 24 hrs by flow cytometry (reference value: 27.5 +/- 5.8%); type: toxicity, cell-based; details: cd34-positive (myeloid/lymphoid) cell
[3] = Plasma protein binding in monkey at 250 uM; type: ADME, cell-free, Macaca mulatta; details: rhesus monkey, read-out: PPB (converted)
[4] = Cmax in mouse at 5 mg/kg by LC-MS/MS analysis; type: ADME, organism-based; set-up: dose 5 mg/kg; details: in vivo
SJSA-1 [5] = experiment: Cytotoxicity against human SJSA-1 cells incubated for 72 hrs in presence of 10% FBS by MTT assay; details: SJSA-1, 72 h
Fibroblast [6] = experiment: Protection against chemotherapy-induced apoptosis in human fibroblast assessed as decrease in caspase-3/7 level preincubated for 16 hrs followed by doxorubicin addition measured after 32 hrs; type: functional, cell-based; details: dose 4.6-10 µM, time 48.0 hrs
[7] = Half life in mouse at 5 mg/kg by LC-MS/MS analysis; type: ADME, organism-based; details: in vivo
[8] = Plasma protein binding in mouse at 2 to 50 uM; type: ADME, cell-free; details: dose 2-50 µM, read-out: PPB (converted)
[9] = system: CD34-positive (myeloid/lymphoid) cell; experiment: Protection against chemotherapy-induced cell cycle arrest in human CD34+ cells assessed as DNA damage by measuring gamma-H2AX level at 1 uM preincubated for 24 hrs followed by topotecan addition measured after 24 hrs; type: functional, cell-based; details: time 48.0 hrs
[10] = Drug uptake in tumor of athymic nu/nu mouse xenografted with human SJSA-1 cells assessed as AUC (0 to 24 hrs) of metabolite ALRN-8714 at 25 mg/kg, iv measured for 24 hrs by LC-MS-MS analysis; type: ADME, organism-based, Neoplasm; set-up: dose 25 mg/kg, time 24 hrs, route iv; details: in vivo
SJSA-1 [11] = experiment: Antitumor activity against human SJSA-1 cells xenografted in athymic nu/nu mouse […] assessed as tumor growth inhibition administered intravenously twice a week measured for 15 days; type: functional, cell-based; details: dose 5-20 mg/kg, route iv, time 15.0 day
[12] = AUC (all) in rat at 10 mg/kg by LC-MS/MS analysis; type: ADME, organism-based; set-up: dose 10 mg/kg; details: in vivo
Mus musculus [13] = experiment: Protection against topotecan-induced crypt loss in gastrointestinal tract of C57BL/6 mouse at 2.4 mg/kg administered on day 0 to 4 and co-administered 30 mins prior to topotecan on day 1 to 4 followed by topotecan administration on day 5 measured on day 9 by H&E staining based analysis; type: functional, organism-based; details: time 9.0 day
Bone marrow cell [14] = experiment: Downregulation of Ki67 expression level in bone marrow cells of C57BL/6 mouse at 2.4 mg/kg, iv administered every 8 hrs measured for 16 hrs by immunohistochemical analysis; type: functional, organism-based
MCF7 [15] = experiment: Antitumor activity against human MCF7 cells xenografted in athymic nude BALB/c mouse assessed as upregulation of p53 protein level at 20 mg/kg, iv by immunohistochemical analysis; type: functional, organism-based; details: time <= 48.0 hrs, TDE = time-dependent effect
[16] = Drug uptake in plasma of athymic nu/nu mouse xenografted with human SJSA-1 cells assessed as half life of metabolite ALRN-8714 at 25 mg/kg, iv measured for 24 hrs by LC-MS-MS analysis; type: ADME, organism-based; details: in vivo
[17] = Toxicity in monkey assessed as NOAEL administered twice weekly for 4 weeks; set-up: species or system Macaca mulatta; details: rhesus monkey, in vivo
Fibroblast [18] = experiment: Protection against chemotherapy-induced apoptosis in human fibroblast assessed as decrease in caspase-3/7 level preincubated for 16 hrs followed by oxaliplatin addition measured after 32 hrs; type: functional, cell-based; details: dose 4.6-10 µM, time 48.0 hrs
[19] = Cmax in rat at 5 mg/kg by LC-MS/MS analysis; type: ADME, organism-based; set-up: dose 5 mg/kg; details: in vivo
[20] = Plasma protein binding in human assessed as unbound fraction at >200 uM; type: ADME, cell-free
Fibroblast [21] = experiment: Protection against apoptosis in human fibroblast assessed as decrease in chemotherapy-induced caspase-3/7 level preincubated for 16 hrs followed by etoposide addition measured after 32 hrs; type: functional, cell-based; details: dose 4.6-10 µM, time 48.0 hrs
[22] = Solubility of the compound in aqueous solution at pH 7.5 incubated for 1 hr by spectrophotometric analysis; type: physicochemical
[23] = Plasma protein binding in monkey at 2 to 50 uM; type: ADME, cell-free, Macaca mulatta; details: rhesus monkey, dose 2-50 µM, read-out: PPB (converted)
Fibroblast [24] = experiment: Protection against chemotherapy-induced apoptosis in human fibroblast assessed as decrease in caspase-3/7 level preincubated for 16 hrs followed by carboplatin addition measured after 32 hrs; type: functional, cell-based; details: dose 4.6-10 µM, time 48.0 hrs
[25] = Toxicity in rat assessed as NOAEL administered twice weekly for 4 weeks; details: in vivo
MCF7 [26] = experiment: Antitumor activity against human MCF7 cells xenografted in athymic nude BALB/c mouse assessed as decrease in BrdU incorporation at 20 mg/kg, iv by immunohistochemical analysis; type: functional, organism-based; details: time <= 48.0 hrs, TDE = time-dependent effect
[27] = Half life in cynomolgous monkey at 5 mg/kg by LC-MS/MS analysis; type: ADME, organism-based, Macaca fascicularis; details: cynomolgus monkey, in vivo
[28] = Drug uptake in plasma of athymic nu/nu mouse xenografted with human SJSA-1 cells assessed as AUC (0 to 24 hrs) of metabolite ALRN-8714 at 25 mg/kg, iv measured for 24 hrs by LC-MS-MS analysis; type: ADME, organism-based; set-up: time 24 hrs, dose 25 mg/kg, route iv; details: in vivo
BT-474 = experiment: […] chemotherapy-induced apoptosis in human BT-474 cells assessed as decrease in caspase-3/7 level at 4.6 to 10 uM preincubated for 16 hrs followed by paclitaxel addition measured after 32 hrs; type: functional, cell-based; details: dose 4.6-10 µM, time 48.0 hrs
SJSA-1 [29] = experiment: Antitumor activity against human SJSA-1 cells xenografted in athymic nu/nu mouse […] assessed as tumor growth inhibition administered intravenously thrice a week measured for 15 days; type: functional, cell-based; details: dose 13.3 mg/kg, route iv, time 15.0 day
Bone marrow cell [30] = experiment: Downregulation of cPARP expression level in bone marrow cells of C57BL/6 mouse at 2.4 mg/kg, iv administered every 8 hrs measured for 16 hrs by immunohistochemical analysis; type: functional, organism-based
[31] = AUC (0 to 24 hrs) in plasma of athymic nu/nu mouse xenografted with human SJSA-1 cells at 25 mg/kg, iv measured for 24 hrs by LC-MS-MS analysis; type: ADME, organism-based; set-up: time 24 hrs, dose 25 mg/kg, route iv; details: in vivo
Mus musculus [32] = experiment: Upregulation of p21 expression level in gastrointestinal tract of C57BL/6 mouse at 2.4 mg/kg, iv administered every 8 hrs measured for 16 hrs by immunohistochemical analysis; type: functional, organism-based
Fibroblast [33] = experiment: Protection against chemotherapy-induced apoptosis in human fibroblast assessed as decrease in caspase-3/7 level preincubated for 16 hrs followed by actinomycin D addition measured after 32 hrs; type: functional, cell-based; details: dose 4.6-10 µM, time 48.0 hrs
Bone marrow cell [34] = experiment: Upregulation of p21 expression level in bone marrow cells of C57BL/6 mouse at 2.4 mg/kg, iv administered every 8 hrs measured for 16 hrs by immunohistochemical analysis; type: functional, organism-based
[35] = AUC (all) in rat at 5 mg/kg by LC-MS/MS analysis; type: ADME, organism-based; set-up: dose 5 mg/kg; details: in vivo
[36] = AUC (0 to 24 hrs) in tumor of athymic nu/nu mouse xenografted with human SJSA-1 cells at 25 mg/kg, iv measured for 24 hrs by LC-MS-MS analysis; type: ADME, organism-based, Neoplasm; set-up: dose 25 mg/kg, time 24 hrs, route iv; details: in vivo
[37] = Cmax in cynomolgous monkey at 10 mg/kg by LC-MS/MS analysis; type: ADME, organism-based, Macaca fascicularis; set-up: dose 10 mg/kg; details: cynomolgus monkey, in vivo

## CC(=O)N[C@@H](CC(C)C)C(=O)N[C@H](C(=O)N[C@@H](Cc1ccccc1)C(=O)N[C@]1(C)CCCCCC/C=C/CCC[C@@](C)(C(=O)N[C@@H](C)C(=O)N[C@@H](C)C(=O)N[C@@H](C)C(=O)N[C@@H](C)C(=O)N[C@@H](C)C(=O)N[C@H](C)C(N)=O)NC(=O)[C@H](CC(C)C)NC(=O)[C@H](CCC(N)=O)NC(=O)[C@H](C)NC(=O)[C@H](Cc2c[nH]c3ccccc23)NC(=O)[C@H](Cc2ccc(O)cc2)NC(=O)[C@H](CCC(=O)O)NC1=O)[C@@H](C)O
[1]
  fraction unbound at up to 50 µM: 0.08
MC-38
  Activity: Active
[2]
  Activity: 4.23%
[3]
  fraction unbound at 250 µM: 0.12
[4]
  Cmax: 67.8 µg/mL
SJSA-1 [5]
  EC50: 300 nM
Fibroblast [6]
  Activity: Dose-Dependent Effect
[7]
  half-life: 2.2 h
[8]
  fraction unbound at up to 50 µM: 0.08
[9]
  Activity: inactive
[10]
  AUC: 128 µg·h/g
SJSA-1 [11]
  Activity: Dose-Dependent Effect
[12]
  AUC: 562 µg·h/mL
Mus musculus [13]
  Activity: Active
Bone marrow cell [14]
  Activity: Active
MCF7 [15]
  Activity: Tde
[16]
  t1/2: 8.4 h
[17]
  NOAEL at 672 h: 5 mg/kg
Fibroblast [18]
  Activity: Dose-Dependent Effect
[19]
  Cmax: 95.9 µg/mL
[20]
  fraction unbound: 0.12
Fibroblast [21]
  Activity: Dose-Dependent Effect
[22]
  solubility at 1 h: ≤ 75 µg/mL
[23]
  fraction unbound at up to 50 µM: 0.08
Fibroblast [24]
  Activity: Dose-Dependent Effect
[25]
  NOAEL at 672 h: 2.5 mg/kg
MCF7 [26]
  Activity: Tde
[27]
  half-life: 4.9 h
[28]
  AUC: 85 µg·h/g
BT-474
  Activity: inactive
SJSA-1 [29]
  Activity: Dose-Dependent Effect
Bone marrow cell [30]
  Activity: Active
[31]
  AUC: 3180 µg·h/mL
Mus musculus [32]
  Activity: Active
Fibroblast [33]
  Activity: Dose-Dependent Effect
Bone marrow cell [34]
  Activity: Active
[35]
  AUC: 223 µg·h/mL
[36]
  AUC: 1 µg·h/g
[37]
  Cmax: 236 µg/mL
